From article PMC4489529 (Antiviral chemistry & chemotherapy, 2014)
Where two headings read alike, the source gives them in different places.

Key:
[1] = pH 7.4, reported for the parent compound; cited from earlier work
in vitro = settings: human, Caco-2, pH 7.4
Caco-2 cells [2] = tested on: Caco-2 cells
[3] = buffer
Caco-2 cells [4] = assay: Caco-2 assay to assess permeability; settings: divalerate prodrug versus parent drug
U373-MAGI-CXCR4CEM cells = settings: at 5 μM, data not shown

recovery at 60 min, 10 μM (in vitro) [%] | Permeability (Caco-2 cells [2]; Caco-2) [cm/s] | Permeability (Caco-2 cells [2]; Caco-2, pH 7.4) | Half-life at pH 2.0 [3] [h] | Half-life at pH 4.65 [3] [h] | Half-life at pH 7.4 [3] [h] | Permeability of prodrug relative to parent compound (Caco-2 cells [4]) [fold] | Permeability of prodrug relative to parent compound (Caco-2 cells [2]; Caco-2) | SMILES | Half-life at pH 7.4 [1] [h] | Decrease in cell proliferation (U373-MAGI-CXCR4CEM cells)
91 | – | – | – | – | – | – | – | Nc1ncn([C@H]2C[C@H](O)[C@@H](CO)O2)c(=O)n1 [Decitabine, 5-aza-2′-deoxycytidine] | 12.9 ±0.9 | –
111 | – | – | – | – | – | – | – | Nc1ccn([C@@H]2O[C@H](CO)[C@@H](O)C2(F)F)c(=O)n1 [Gemcitabine, 2′,2′-difluoro-2′-deoxycytidine] | – | –
– | 2.1e-06 | 2.1 10^−6 cm/s | 85 | 247 | 135 | 4.2 | – | CCCCC(=O)OC[C@H]1O[C@@H](n2ccc(N)nc2=O)C(F)(F)[C@@H]1OC(=O)CCCC [Gemcitabine divalerate, gemcitabine divalerate] | – | –
– | 3.2e-06 | 3.2 10^−6 cm/s | 17 | 36 | 28 | – | fourfold higher | CCCCC(=O)OC[C@H]1O[C@@H](n2cnc(N)nc2=O)C[C@@H]1OC(=O)CCCC [Decitabine divalerate, decitabine divalerate] | – | less than 5%
